This note sets out measurements from ChEMBL document CHEMBL1126433 (Bioorg Med Chem Lett, 1992).

Assay [1] has as its target T1, Cyclooxygenase (Rattus norvegicus) (UniProt P35355+Q63921). Nature of the assay: Compound was evaluated for its inhibitory activity against CO(cyclooxygenase) at 10 uM concentration in intact RBL-1 cell line assay; Less than 5% inhibition at 10 uM reported as not active. It counts as cell-based.
For assay [2], the target named is T2, Polyunsaturated fatty acid 5-lipoxygenase (Rattus norvegicus) (UniProt P12527).
T2 sequence (whole entry): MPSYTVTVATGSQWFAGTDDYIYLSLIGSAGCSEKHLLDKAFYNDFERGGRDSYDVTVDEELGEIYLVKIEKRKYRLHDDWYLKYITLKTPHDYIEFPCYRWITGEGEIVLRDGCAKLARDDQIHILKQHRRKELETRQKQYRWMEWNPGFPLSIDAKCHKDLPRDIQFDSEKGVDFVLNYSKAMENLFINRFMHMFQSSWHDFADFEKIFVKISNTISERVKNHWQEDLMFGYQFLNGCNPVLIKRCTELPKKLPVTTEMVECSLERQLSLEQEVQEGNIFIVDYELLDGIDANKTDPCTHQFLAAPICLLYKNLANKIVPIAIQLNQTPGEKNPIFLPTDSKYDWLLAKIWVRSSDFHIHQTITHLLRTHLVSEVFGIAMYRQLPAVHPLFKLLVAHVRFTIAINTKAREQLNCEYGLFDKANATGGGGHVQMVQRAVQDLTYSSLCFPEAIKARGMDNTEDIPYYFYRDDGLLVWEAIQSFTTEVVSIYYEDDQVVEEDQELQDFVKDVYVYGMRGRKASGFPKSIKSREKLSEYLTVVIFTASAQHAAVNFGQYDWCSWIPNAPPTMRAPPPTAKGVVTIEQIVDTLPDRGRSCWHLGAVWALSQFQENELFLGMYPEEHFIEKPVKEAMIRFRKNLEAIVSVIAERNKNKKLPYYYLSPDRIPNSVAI
Nature of the assay: Compound was evaluated for its inhibitory activity against 5-LO (5-lipoxygenase) at 10 uM concentration in intact RBL-1 cell line assay. The assay is classed as cell-based.

Assay [3] concerns the target T3, Cyclooxygenase (Rattus norvegicus, UniProt P35355+Q63921).
T3 sequence (P35355 whole entry): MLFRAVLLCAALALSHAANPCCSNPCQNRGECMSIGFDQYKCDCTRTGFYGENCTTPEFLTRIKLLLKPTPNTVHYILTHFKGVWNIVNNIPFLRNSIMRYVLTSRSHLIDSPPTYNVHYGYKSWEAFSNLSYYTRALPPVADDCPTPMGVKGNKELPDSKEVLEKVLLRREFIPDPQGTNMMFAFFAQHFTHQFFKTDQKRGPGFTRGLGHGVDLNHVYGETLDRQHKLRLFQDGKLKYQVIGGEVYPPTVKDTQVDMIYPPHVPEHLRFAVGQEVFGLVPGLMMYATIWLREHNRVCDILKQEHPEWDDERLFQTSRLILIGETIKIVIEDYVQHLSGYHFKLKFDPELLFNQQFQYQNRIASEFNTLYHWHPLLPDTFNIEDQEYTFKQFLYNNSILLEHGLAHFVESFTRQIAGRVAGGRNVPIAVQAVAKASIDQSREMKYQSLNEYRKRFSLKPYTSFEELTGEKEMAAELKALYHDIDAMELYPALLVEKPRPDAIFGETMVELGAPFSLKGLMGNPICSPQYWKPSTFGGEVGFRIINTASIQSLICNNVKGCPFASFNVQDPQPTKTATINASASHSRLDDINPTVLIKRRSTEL
T3 sequence (Q63921 whole entry): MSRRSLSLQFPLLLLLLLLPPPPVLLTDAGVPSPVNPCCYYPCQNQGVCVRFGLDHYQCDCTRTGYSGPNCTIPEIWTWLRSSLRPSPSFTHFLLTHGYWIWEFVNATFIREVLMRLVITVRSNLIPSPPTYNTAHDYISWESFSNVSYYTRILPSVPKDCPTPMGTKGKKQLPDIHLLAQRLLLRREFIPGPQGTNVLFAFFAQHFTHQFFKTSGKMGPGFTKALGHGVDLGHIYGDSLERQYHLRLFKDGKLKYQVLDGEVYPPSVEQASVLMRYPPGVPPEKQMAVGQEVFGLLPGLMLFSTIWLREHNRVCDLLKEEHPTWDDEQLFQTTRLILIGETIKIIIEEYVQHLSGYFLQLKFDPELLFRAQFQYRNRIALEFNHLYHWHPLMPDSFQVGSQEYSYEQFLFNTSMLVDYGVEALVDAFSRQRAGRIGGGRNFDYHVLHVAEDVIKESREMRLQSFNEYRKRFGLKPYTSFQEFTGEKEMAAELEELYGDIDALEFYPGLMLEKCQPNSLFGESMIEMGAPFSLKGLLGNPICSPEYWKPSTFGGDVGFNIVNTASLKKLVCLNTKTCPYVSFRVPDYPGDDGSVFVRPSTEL
As to the kind of experiment: Compound was evaluated for its inhibitory activity against CO(cyclooxygenase). It counts as protein assay.

Assay [4] concerns the target T1, Cyclooxygenase (Rattus norvegicus). Nature of the assay: Compound was evaluated for its inhibitory activity against CO(cyclooxygenase) at 10 uM concentration in intact RBL-1 cell line assay. It counts as cell-based.
Assay [5] has as its target T2, Polyunsaturated fatty acid 5-lipoxygenase (Rattus norvegicus). As to the kind of experiment: Compound was evaluated for its inhibitory activity against 5-LO (5-lipoxygenase) at 10 uM concentration in intact RBL-1 cell line assay; Less than 5% inhibition at 10 uM reported as not active. The assay is classed as cell-based.
Assay [6] concerns the target T4, Polyunsaturated fatty acid 5-lipoxygenase (Rattus norvegicus, UniProt P12527).
T4 sequence (P12527 whole entry): T2 sequence (whole entry)
As to the kind of experiment: Compound was evaluated for its inhibitory activity against 5-LO (5-lipoxygenase) in intact RBL-1 cell line assay. It counts as cell-based.

For assay [7], the target named is T3, Cyclooxygenase. Nature of the assay: Compound was evaluated for its inhibitory activity against CO(cyclooxygenase) in intact RBL-1 cell line assay. The assay is classed as cell-based.

Molecules are shown by their SMILES. Activity calls are given as the source filed them. No cut-off for these calls is given here.

The inhibition is the share of the control response that was lost under treatment. For the compound `Cc1ccc(Cl)c(Nc2ccccc2/C=C2\SC(=O)NC2=O)c1Cl`, the inhibition entry in assay [1] is “inactive”. The compound further returned an inhibition in assay [2] of 30%.
What is called IC50 is the point on the concentration scale where inhibition reaches its midpoint. A low value points to greater potency in that assay. `Cc1ccc(Cl)c(Nc2ccccc2/C=C2\SC(=S)NC2=O)c1Cl` registered an IC50 against Cyclooxygenase [3] of 6000 nM.
Take `Cc1ccc(Cl)c(Nc2ccccc2/C=C2\SC(=S)N(CC(=O)O)C2=O)c1Cl`: in assay [4], the inhibition is 33%.
Regarding `Cc1ccc(Cl)c(Nc2ccccc2/C=C2\SC(N)=NC2=O)c1Cl`, the inhibition is 35% in assay [2] and 20% in assay [4].
Take `Cc1ccc(Cl)c(Nc2ccccc2/C=C2\SC(=S)N(C)C2=O)c1Cl`: the inhibition entry in assay [5] is “inactive”. This compound came in with an inhibition in assay [4] of 32%.
The compound `COc1ccc2c(c1)c(CC(=O)O)c(C)n2C(=O)c1ccc(Cl)cc1` [INDOMETHACIN] had an IC50 in assay [6] of more than 100000 nM.
For the compound `Cc1ccc(Cl)c(Nc2ccccc2/C=C2\SC(NC#N)=NC2=O)c1Cl`, the IC50 in assay [6] is 1500 nM; against Cyclooxygenase [7], 10200 nM.
Taken in the same sequence, the figures for `COc1ccc2c(c1)c(/C=C1/SC(=S)NC1=O)c(C)n2C(=O)c1ccc(Cl)cc1` were 1400 nM and 2000 nM.
